How the values were obtained:
[1] = tested on: HCT 116 Cells; experiment: Aurora kinase whole cell cytotoxicity assay: Sulforhodamine B; type: cell-based; settings: Homo sapiens, HCT116, SRB staining, 96 hours incubation
Description: Human tumour-derived cell lines, HCT116 or MCF7 (ATCC) were plated in a 96 well plate in DMEM containing 10% fetal bovine serum and 2 mM L-glutamine at a density of 500 HCT116 cells or 1,000 MCF7 cells per well and incubated at 37° C., 5% CO2, for 24 hours prior to the addition of experimental compounds. Compounds were added using the dilution series indicated to duplicate plates and the cells were incubated in media plus compound for 96 hours. An additional plate was fixed in 10% TCA at the time of the addition of compound to provide a measurement of the cell population at time zero, the time of drug addition. Following the 96 hour incubation, cells were fixed in situ by gently aspirating off the culture media and then adding 50 ul of ice cold 10% TCA per well and incubation at 4° C. for 60 minutes. The plates were washed with tap water five times and allowed to air dry for 5 minute. 50 ul of a 0.4% (w/v) Sulforhodamine B solution in 1% (v/v) acetic acid was added per well and the cells were incubated for 30 minutes at room temperature. Following staining, plates were washed four times with 1% acetic acid to remove any unbound dye and then allowed to air dry for 5 minutes. The stain was solubilized with 100 ul of 10 mM Tris pH 10.5 per well and placed on an orbital rotator for 5 minutes. The absorbance was read at 570 nm. Percentage growth was calculated using the absorbance readings from the time zero plate (Tz) and the dilution series plate […] which included a column of cells grown in media without compound as a control (C) using the formulas: [(Ti−Tz)/(C−Tz)]×100 for concentrations for which Ti>/=Tz [(Ti−Tz)/Tz]×100 for concentrations for which Ti<Tz.
Three dose response parameters were calculated for each experimental agent. Growth inhibition of 50% (GI50) was calculated from [(Ti−Tz)/(C−Tz)]×100=50, which was the drug concentration resulting in a 50% reduction in the net protein increase (as measured by SRB staining) in control cells during the drug incubation. The drug concentration resulting in total growth inhibition (TGI) was calculated from Ti=Tz. The LC50 (concentration of drug resulting in a 50% reduction in the measured protein at the end of the drug treatment as compared to that at the beginning) indicating a net loss of cells following treatment ws calculated from [(Ti−Tz)/Tz]×100=−50. Values are calculated for each of these three parameters if the level of activity was reached; however, if the effect was not reached or was exceeded, the value for that parameter is expressed as greater or less than the maximum or minimum concentration tested.

[2] = target: T1, recombinant Aurora A (Homo sapiens, UniProt O14965); experiment: PanVera Z'-Lyte Aurora kinase assay; type: biochemical; settings: Z'-Lyte Ser/Thr 1 peptide 2 μM, ATP 10 μM, 1 h
T1 construct: purchased Upstate, Lake Placid, N.Y
T1 sequence (O14965 1-403): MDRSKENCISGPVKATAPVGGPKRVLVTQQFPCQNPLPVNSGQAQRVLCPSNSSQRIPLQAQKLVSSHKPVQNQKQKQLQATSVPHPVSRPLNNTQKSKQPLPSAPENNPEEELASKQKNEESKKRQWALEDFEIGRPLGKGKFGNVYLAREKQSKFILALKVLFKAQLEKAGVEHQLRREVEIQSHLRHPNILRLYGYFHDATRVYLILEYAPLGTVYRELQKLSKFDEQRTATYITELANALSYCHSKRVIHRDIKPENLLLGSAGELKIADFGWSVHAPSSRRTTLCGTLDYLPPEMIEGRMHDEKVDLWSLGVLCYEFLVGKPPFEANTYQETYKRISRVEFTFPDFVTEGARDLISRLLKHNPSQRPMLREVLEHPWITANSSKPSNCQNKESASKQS
Description: Compounds 7-14 above were tested for their potency against recombinant Aurora A (Upstate, Lake Placid, N.Y.) using the PanVera Z'-Lyte kinase assay kit—Ser/Thr 1 peptide (Invitrogen, Carlsbad, Calif.). Assays were carried out in kinase assay buffer (50 mM HEPES, pH 7.5, 10 mM MgCl2, 5 mM EGTA, 0.05% Brij-35, 2 mM DTT). Test compounds were initially dissolved in DMSO at 100× the highest tested concentration, then serially diluted to 4× test concentrations in kinase assay buffer. Next, Aurora A (final concentration 200-500 ng/mL), Z′-Lyte Ser/Thr 1 peptide (final concentration 2 μM) and ATP (final concentration 10 μM) were added according to the manufacturer's instructions. Assays were carried out in half-area 96-well white polystyrene assay plates (Corning, Corning, N.Y.) in a final volume of 20 μL. The reaction was allowed to proceed for 1 h at room temperature in the dark, at which point the development reagent and stop reagent were added according to the manufacturer's instructions. Coumarin (Ex. 400 nm, Em. 465 nm) and fluorescein (Ex. 400 nm, Em. 565 nm) fluorescence values were measured on a SpectraFluor Plus plate reader (Tecan, Durham, N.C.). The emission ratio (coumarin/fluorescein) was determined and used to calculate the percent phosphorylation for each well. Wells containing substrate but no kinase and wells containing a phosphopeptide control were used to set 0% and 100% phosphorylation values, respectively. Typically 20-40% of the substrate was phosphorylated in wells without inhibitor. Dose-response curves of relative Aurora A activity vs. inhibitor concentration were plotted with Grafit (Erithacus Software, Horley, Surrey, UK) and used to calculate IC50 values.

IC50 [2] [nM]	SMILES	GI50 [1] [nM]
< 100	Cc1cc(Nc2nc(Sc3ccc(NC(=O)C4CC4)cc3)nc(C(=O)OCCO)c2N)n[nH]1 [Compound 50, 2-Hydroxyethyl 2-(4-cyclopropanecarboxamidophenylsulfanyl)-5-amino-6-(5-methylpyrazol-3-ylamino)-4-pyrimidinecarboxylate]	1000 to 10000
< 100	Cc1cc(Nc2nc(Sc3ccc(NC(=O)C4CC4)cc3)nc(C(=O)NCc3cccs3)c2N)n[nH]1 [Compound 59, N-(2-Thien-2-ylmethyl) 2-(4-cyclopropanecarboxamidophenylsulfanyl)-5-amino-6-(5-methylpyrazol-3-ylamino)-4-pyrimidinecarboxamide]	1000 to 10000
< 100	Cc1cc(Nc2nc(Sc3ccc(NC(=O)C4CC4)cc3)nc(C(=O)OCCN3CCCCC3)c2N)n[nH]1 [Compound 48, 2-Piperidin-1-ylethyl 2-(4-cyclopropanecarboxamidophenylsulfanyl)-5-amino-6-(5-methylpyrazol-3-ylamino)-4-pyrimidinecarboxylate]	1000 to 10000
< 100	Cc1cc(Nc2nc(Sc3ccc(NC(=O)C4CC4)cc3)nc(C(=O)NC3CCN(C)CC3)c2N)n[nH]1 [Compound 64, N-(1-Methylpiperidin-4-yl) 2-(4-cyclopropanecarboxamidophenylsulfanyl)-5-amino-6-(5-methylpyrazol-3-ylamino)-4-pyrimidinecarboxamide]	100 to 1000
< 100	Cc1cc(Nc2nc(Sc3ccc(NC(=O)C4CC4)cc3)nc(C(=O)Nc3ccncc3)c2N)n[nH]1 [Compound 51, N-Pyridin-4-yl 2-(4-cyclopropanecarboxamidophenylsulfanyl)-5-amino-6-(5-methylpyrazol-3-ylamino)-4-pyrimidinecarboxamide]	1000 to 10000
< 100	Cc1cc(Nc2nc(Sc3ccc(NC(=O)C4CC4)cc3)nc(C(=O)NCCN(C)C)c2N)n[nH]1 [Compound 12, N-[2-(N,N-dimethylamino)ethyl]-2-(4-cyclopropane-carboxamidophenylsulfanyl)-5-amino-6-(5-methylpyrazol-3-ylamino)-4-pyrimidine carboxamide]	1000 to 10000
< 100	Cc1cc(Nc2nc(Sc3ccc(NC(=O)C4CC4)cc3)nc(C(=O)OC(C)C)c2N)n[nH]1 [Compound 49, Isopropyl 2-(4-cyclopropanecarboxamidophenylsulfanyl)-5-amino-6-(5-methylpyrazol-3-ylamino)-4-pyrimidinecarboxylate]	100 to 1000
< 100	COCCNC(=O)c1nc(Sc2ccc(NC(=O)C3CC3)cc2)nc(Nc2cc(C)[nH]n2)c1N [Compound 43, N-(2-Methoxyethyl) 2-(4-cyclopropanecarboxamidophenylsulfanyl)-5-amino-6-(5-methylpyrazol-3-ylamino)-4-pyrimidinecarboxamide]	100 to 1000
< 100	COCCOC(=O)c1nc(Sc2ccc(NC(=O)C3CC3)cc2)nc(Nc2cc(C)[nH]n2)c1N [Compound 40, 2-Methoxyethyl 2-(4-cyclopropanecarboxamidophenylsulfanyl)-5-amino-6-(5-methylpyrazol-3-ylamino)-4-pyrimidinecarboxylate]	100 to 1000
< 100	CCOC(=O)c1nc(Nc2ccc(NC(=O)C3CC3)cc2)nc(Nc2cc(C)[nH]n2)c1N [Compound 36, Ethyl 2-({4-[(cyclopropylcarbonyl)amino]phenyl}amino)-5-amino-6-(5-methylpyrazol-3-ylamino)-4-pyrimidinecarboxylate]	1000 to 10000
< 100	Cc1cc(Nc2nc(Sc3ccc(NC(=O)C4CC4)cc3)nc(C(=O)OCc3ccccc3)c2N)n[nH]1 [Compound 66, Benzyl 2-(4-cyclopropanecarboxamidophenylsulfanyl)-5-amino-6-(5-methylpyrazol-3-ylamino)-4-pyrimidinecarboxylate]	100 to 1000
< 100	Cc1cc(Nc2nc(Sc3ccc(NC(=O)C4CC4)cc3)nc(C(=O)N3CCSCC3)c2N)n[nH]1 [Compound 45, Thiomorpholin-4-yl 2-(4-cyclopropanecarboxamidophenylsulfanyl)-5-amino-6-(5-methylpyrazol-3-ylamino)-4-pyrimidinecarboxamide]	1000 to 10000
< 100	Cc1cc(Nc2nc(Sc3ccc(NC(=O)C4CC4)cc3)nc(C(=O)OC3CCCCC3)c2N)n[nH]1 [Compound 42, Cyclohexyl 2-(4-cyclopropanecarboxamidophenylsulfanyl)-5-amino-6-(5-methylpyrazol-3-ylamino)-4-pyrimidinecarboxylate]	100 to 1000
< 100	COCCCNC(=O)c1nc(Sc2ccc(NC(=O)C3CC3)cc2)nc(Nc2cc(C)[nH]n2)c1N [Compound 55, N-(3-Methoxypropyl) 2-(4-cyclopropanecarboxamidophenylsulfanyl)-5-amino-6-(5-methylpyrazol-3-ylamino)-4-pyrimidinecarboxamide]	100 to 1000
< 100	Cc1cc(Nc2nc(Sc3ccc(NC(=O)C4CC4)cc3)nc(C(=O)NCc3ccco3)c2N)n[nH]1 [Compound 58, N-(2-Furylmethyl) 2-(4-cyclopropanecarboxamidophenylsulfanyl)-5-amino-6-(5-methylpyrazol-3-ylamino)-4-pyrimidinecarboxamide]	1000 to 10000
< 100	Cc1cc(Nc2nc(Sc3ccc(NC(=O)C4CC4)cc3)nc(C(=O)NCCN3CCCCC3)c2N)n[nH]1 [Compound 17, N-(2-Piperidin-1-ylethyl) 2-(4-cyclopropanecarboxamidophenylsulfanyl)-5-amino-6-(5-methylpyrazol-3-ylamino)-4-pyrimidinecarboxamide]	100 to 1000
100 to 1000	Cc1cc(Nc2nc(Sc3ccc(NC(=O)C4CC4)cc3)nc(C(=O)NC(C)(C)C)c2N)n[nH]1 [Compound 57, N-(tert-Butyl) 2-(4-cyclopropanecarboxamidophenylsulfanyl)-5-amino-6-(5-methylpyrazol-3-ylamino)-4-pyrimidinecarboxamide]	1000 to 10000
< 100	Cc1cc(Nc2nc(Sc3ccc(NC(=O)C4CC4)cc3)nc(C(=O)OCCN3CCOCC3)c2N)n[nH]1 [Compound 18, 2-Morpholin-4-ylethyl 2-(4-cyclopropanecarboxamidophenylsulfanyl)-5-amino-6-(5-methylpyrazol-3-ylamino)-4-pyrimidinecarboxylate]	1000 to 10000
